# Data from US20110190365A1, “Insecticidal 4-phenyl-1H-pyrazoles” (Bayer Crop Science AG, priority 2008, published 2011).
# Assay: log P by HPLC on a reversed-phase column (C18), EEC Directive 79/831 Annex V.A8
# Assay type: physicochemical
# Details: HCOOH
# Protocol: The stated log P values were determined in accordance with EEC Directive 79/831 Annex V.A8 by HPLC (High Performance Liquid Chromatography) using a reversed-phase column (C18).
row,Structure (SMILES),log P (HCOOH)
1,Cc1cc(-n2nc(C(F)(F)F)c(-c3cc(C(F)(F)F)cc(C(F)(F)F)c3)c2N)ccc1C(=O)NCc1ccccn1 [I-A-Q2-360],I-A-Q2-360: log P (HCOOH): 3.47
2,Nc1c(-c2ccc(Br)cc2)c(C(F)(F)F)nn1-c1ccc(C(=O)NC2CC2)cc1 [I-A-Q2-190],I-A-Q2-190: log P (HCOOH): 3.15
3,"Cc1cc(-n2nc(C(F)(F)F)c(-c3cc(Cl)cc(Cl)c3)c2[S+](C)[O-])ccc1C(=O)NCC(F)(F)C(F)F (single isomer, unassigned) [I-A-Q2-283]",I-A-Q2-283: log P (HCOOH): 4.12
4,Cc1cc(-n2nc(C(F)(F)F)cc2N)ccc1C(=O)NCC(F)(F)C(F)F [XI-A-088],XI-A-088: log P (HCOOH): 2.63
5,"Cc1cc(-n2nc(C(F)(F)F)c(-c3cc(Cl)cc(Cl)c3)c2[S+](C)[O-])ccc1C(=O)NCC(F)(F)C(F)F (single isomer, unassigned) [I-A-Q2-284]",I-A-Q2-284: log P (HCOOH): 4.32
6,C=CCNC(=O)c1ccc(-n2nc(C(F)(F)F)c(-c3cc(Cl)cc(Cl)c3)c2N)cc1 [I-A-Q2-144],I-A-Q2-144: log P (HCOOH): 3.93
7,N#Cc1cc(-n2nc(C(F)(F)F)cc2N)ccc1-n1cncn1 [XI-A-079],XI-A-079: log P (HCOOH): 2.80
8,Cc1cc(-n2nc(C(C)C)c(-c3ccc(Cl)cc3)c2N)ccc1C(=O)NCC(F)(F)C(F)F [I-A-Q2-338],I-A-Q2-338: log P (HCOOH): 3.65
9,Nc1c(-c2cc(Cl)cc(Cl)c2)c(C(F)(F)F)nn1-c1ccc(C(=O)NCC(F)(F)C(F)F)c(C(F)(F)F)c1 [I-A-Q2-385],I-A-Q2-385: log P (HCOOH): 4.60
10,Cc1cc(-n2nc(C(F)(F)F)c(-c3cc(Cl)cc(Cl)c3)c2N)ccc1C(=O)NC(c1ccccc1)C(F)(F)F (centres unmarked) [I-A-Q2-241],I-A-Q2-241: log P (HCOOH): 4.89
11,Cc1cc(-n2nc(C(F)(F)F)c(-c3cc(Cl)cc(Cl)c3)c2N)ccc1C(=O)NC(C)c1ccc(F)cc1 (centres unmarked) [I-A-Q2-247],I-A-Q2-247: log P (HCOOH): 4.57
12,Cc1cc(-n2nc(-c3ccccc3)c(-c3ccc(Cl)cc3)c2N)ccc1C(=O)NCC(F)(F)C(F)F [I-A-Q2-337],I-A-Q2-337: log P (HCOOH): 3.80
13,CC(NC(=O)c1ccc(-n2nc(C(F)(F)F)c(-c3ccc(Cl)cc3)c2N)cc1)C(F)(F)F (centres unmarked) [I-A-Q2-153],I-A-Q2-153: log P (HCOOH): 3.89
14,Cc1cc(-n2nc(C(F)(F)F)c(-c3cc(Cl)cc(Cl)c3)c2N)ccc1C(=O)NCCN1CCOCC1 [I-A-Q2-264],I-A-Q2-264: log P (HCOOH): 1.99
15,Cc1cc(-n2nc(C(F)(F)F)c(-c3cc(Cl)cc(Cl)c3)c2N)ccc1C(=O)N(Cc1ccccn1)Cc1ccccn1 [I-A-Q2-199],I-A-Q2-199: log P (HCOOH): 3.48
16,CC(NC(=O)c1ccc(-n2nc(C(F)(F)F)c(-c3ccc(Br)cc3)c2N)cc1)C(F)(F)F (centres unmarked) [I-A-Q2-188],I-A-Q2-188: log P (HCOOH): 3.78
17,Nc1c(-c2ccc(Cl)cc2)c(C(F)(F)F)nn1-c1ccc(C(=O)NC2CC2)cc1 [I-A-Q2-163],I-A-Q2-163: log P (HCOOH): 3.13
18,Nc1c(-c2cc(Cl)cc(Cl)c2)c(C(F)(F)F)nn1-c1ccc(C(=O)NCC(F)(F)F)cn1 [I-A-Q2-101],I-A-Q2-101: log P (HCOOH): 4.71
19,Cc1cc(-n2nc(C3CC3)c(-c3ccc(Cl)cc3)c2N)ccc1C(=O)NCc1ccccn1 [I-A-Q2-381],I-A-Q2-381: log P (HCOOH): 2.46
20,Cc1cc(-n2nc(CC(C)C)c(-c3ccc(Cl)cc3)c2N)ccc1C(=O)NCC(F)(F)C(F)F [I-A-Q2-342],I-A-Q2-342: log P (HCOOH): 3.85

row,Structure (SMILES),log P (HCOOH)
1,Cc1cc(-n2nc(C(F)(F)F)c(-c3cc(Cl)cc(Cl)c3)c2N)ccc1C(=O)NCC[S+](C)[O-] (centres unmarked) [I-A-Q2-273],I-A-Q2-273: log P (HCOOH): 2.98
2,CC(NC(=O)c1ccc(-n2nc(C(F)(F)F)c(-c3cc(Cl)cc(Cl)c3)c2N)cc1)C(F)(F)F (centres unmarked) [I-A-Q2-133],I-A-Q2-133: log P (HCOOH): 4.44
3,Cc1cc(-n2nc(C(F)(F)F)c(-c3cc(Cl)cc(Cl)c3)c2N)ccc1C(=O)NCc1cccc(Br)n1 [I-A-Q2-253],I-A-Q2-253: log P (HCOOH): 4.40
4,Cc1cc(-n2nc(C(F)(F)F)cc2N)ccc1C(=O)O [XI-A-084],XI-A-084: log P (HCOOH): 3.53
5,Cc1cc(-n2nc(C)c(-c3ccc(Cl)c(Cl)c3)c2N)ccc1C(=O)NCC(F)(F)C(F)F [I-A-Q2-323],I-A-Q2-323: log P (HCOOH): 4.32
6,Cc1cc(-n2nc(C(F)(F)F)c(-c3ccc(Cl)cc3Cl)c2N)ccc1C(=O)NCC1CC1 [I-A-Q2-410],I-A-Q2-410: log P (HCOOH): 3.94
7,Cc1cc(-n2nc(C(F)(F)F)c(-c3cc(Cl)cc(Cl)c3)c2N)ccc1C(=O)NC(c1ccccn1)C(F)(F)F (centres unmarked) [I-A-Q2-054],I-A-Q2-054: log P (HCOOH): 2.31
8,Cc1cc(-n2nc(C(F)(F)F)c(-c3ccc(I)cc3)c2N)ccc1C(=O)NCc1ccccn1 [I-A-Q2-356],I-A-Q2-356: log P (HCOOH): 2.93
9,Nc1c(-c2cc(Cl)cc(Cl)c2)c(C(F)(F)F)nn1-c1ccc(C(=O)NCCCC(F)=C(F)F)cc1 [I-A-Q2-073],I-A-Q2-073: log P (HCOOH): 4.35
10,Cc1cc(-n2nc(C(F)(F)F)c(-c3cc(Cl)cc(Cl)c3)c2N)ccc1C(=O)NCC(C)O (centres unmarked) [I-A-Q2-262],I-A-Q2-262: log P (HCOOH): 3.28
11,COc1cnc(CNC(=O)c2ccc(-n3nc(C(F)(F)F)c(-c4cc(Cl)cc(Cl)c4)c3N)cc2C)cc1OC [I-A-Q2-037],I-A-Q2-037: log P (HCOOH): 2.42
12,COc1ccc(CNC(=O)c2ccc(-n3nc(C(F)(F)F)c(-c4cc(Cl)cc(Cl)c4)c3N)cc2C)nc1 [I-A-Q2-032],I-A-Q2-032: log P (HCOOH): 3.63
13,Cc1cc(-n2nc(C(C)C)c(-c3ccc(Cl)cc3)c2N)ccc1C(=O)NCc1ccccn1 [I-A-Q2-378],I-A-Q2-378: log P (HCOOH): 2.61
14,Cc1cc(-n2nc(C(F)(F)F)c(-c3ccc(I)cc3)c2N)ccc1C(=O)NCC(F)(F)C(F)F [I-A-Q2-313],I-A-Q2-313: log P (HCOOH): 3.85
15,Cc1cc(-n2nc(C(F)(F)F)c(-c3cc(Cl)cc(Cl)c3)c2N)ccc1C(=O)NC(C)c1ccccn1 (centres unmarked) [I-A-Q2-015],I-A-Q2-015: log P (HCOOH): 3.70
16,Cc1cnc(CNC(=O)c2ccc(-n3nc(C(F)(F)F)c(-c4cc(Cl)cc(Cl)c4)c3N)cc2C)c(C)c1 [I-A-Q2-038],I-A-Q2-038: log P (HCOOH): 3.11
17,Cc1cc(-n2nc(C(F)(F)F)c(-c3ccc(Cl)cc3Cl)c2N)ccc1C(=O)NCc1ncccn1 [I-A-Q2-411],I-A-Q2-411: log P (HCOOH): 3.17
18,Cc1cc(-n2nc(C(F)(F)F)c(-c3cc(Cl)cc(Cl)c3)c2N)ccc1C(=O)NC(c1ccc(C(F)(F)F)cc1)C(F)(F)F (centres unmarked) [I-A-Q2-242],I-A-Q2-242: log P (HCOOH): 5.29
19,Cc1cc(-n2nc(C(F)(F)F)c(-c3ccc(C#N)cc3)c2N)ccc1C(=O)NCC(F)(F)C(F)F [I-A-Q2-306],I-A-Q2-306: log P (HCOOH): 3.24

# Same assay, conditions: HCOOH; Table 4, compounds of formula I-A-Q4
row,Structure (SMILES),log P (HCOOH)
1,Nc1c(-c2ccc(Cl)cc2)c(C(F)(F)F)nn1-c1ccc(Cl)cn1 [I-A-Q4-041],I-A-Q4-041: log P (HCOOH): 4.95
2,Nc1c(-c2cc(F)cc(Cl)c2)c(C(F)(F)F)nn1-c1ccc(Cl)cn1 [I-A-Q4-040],I-A-Q4-040: log P (HCOOH): 5.29
3,Nc1c(-c2ccc(Cl)c(Cl)c2)c(C(F)(F)F)nn1-c1ccc(Cl)cn1 [I-A-Q4-043],I-A-Q4-043: log P (HCOOH): 5.44
4,CCOC(=O)c1ccc(-n2nc(C(F)(F)F)c(-c3cc(Cl)cc(Cl)c3)c2N)cc1 [I-A-Q4-086],I-A-Q4-086: log P (HCOOH): 4.93
5,Nc1c(-c2ccc(F)c(Cl)c2)c(C(F)(F)F)nn1-c1ccc(Cl)cn1 [I-A-Q4-047],I-A-Q4-047: log P (HCOOH): 4.95
6,Nc1c(-c2ccc(Cl)c(F)c2)c(C(F)(F)F)nn1-c1ccc(C(=O)O)cc1 [I-A-Q4-093],I-A-Q4-093: log P (HCOOH): 3.39
7,Nc1c(-c2cc(F)c(F)c(F)c2)c(C(F)(F)F)nn1-c1ccc(C(=O)O)cc1 [I-A-Q4-099],I-A-Q4-099: log P (HCOOH): 3.32
8,Cc1nn(-c2ccc(Cl)cn2)c(N)c1-c1ccc(F)cc1Cl [I-A-Q4-037],I-A-Q4-037: log P (HCOOH): 4.05
9,Nc1c(-c2ccc(Cl)c(Cl)c2)c(C(F)(F)F)nn1-c1ccc(C(=O)O)cc1 [I-A-Q4-089],I-A-Q4-089: log P (HCOOH): 3.69
10,Cc1nn(-c2ccc(Cl)cn2)c(N)c1-c1ccc(Cl)cc1 [I-A-Q4-039],I-A-Q4-039: log P (HCOOH): 4.40
11,Nc1c(-c2cccc(Br)c2)c(C(F)(F)F)nn1-c1ccc(C(=O)O)cc1 [I-A-Q4-091],I-A-Q4-091: log P (HCOOH): 3.29
12,CNc1cc(-n2nc(C(F)(F)F)c(-c3cc(Cl)cc(Cl)c3)c2N)ccc1C(=O)O [I-A-Q4-120],I-A-Q4-120: log P (HCOOH): 4.11

# Same assay, conditions: HPLC, reversed-phase C18, mobile phase with formic acid
row,Structure (SMILES),log P (HCOOH)
1,N#Cc1cc(-n2nc(C(F)(F)F)c(-c3cc(Cl)cc(Cl)c3)c2N)ccc1-n1cnc2ccccc21 [I-A-Q1-081],I-A-Q1-081: log P (HCOOH): 4.28
2,Nc1c(-c2cc(Cl)cc(Cl)c2)c(C(F)(F)F)nn1-c1ccc(-n2cncn2)c(-n2cncn2)c1 [I-A-Q1-075],I-A-Q1-075: log P (HCOOH): 3.28
3,N#Cc1cc(-n2nc(C(F)(F)Cl)c(-c3cc(Cl)cc(C(F)(F)F)c3)c2N)ccc1-n1cncn1 [I-A-Q1-049],I-A-Q1-049: log P (HCOOH): 4.11
4,N#Cc1cc(-n2nc(C(F)(F)F)c(-c3c(F)cc(F)cc3F)c2N)ccc1-n1cncn1 [I-A-Q1-034],I-A-Q1-034: log P (HCOOH): 3.10
5,N#Cc1cc(-n2nc(C(F)(F)F)c(-c3ccc(Cl)cc3Cl)c2N)ccc1-n1cncn1 [I-A-Q1-045],I-A-Q1-045: log P (HCOOH): 2.64
6,N#Cc1cc(-n2nc(C(F)(F)F)c(-c3cc(Cl)cc(Cl)c3)c2N)ccc1-n1cnc(C(N)=O)n1 [I-A-Q1-088],I-A-Q1-088: log P (HCOOH): 3.06
7,Cc1nc(C(F)(F)F)nn1-c1ccc(-n2nc(C(F)(F)F)c(-c3cc(Cl)cc(Cl)c3)c2N)cc1C#N [I-A-Q1-086],I-A-Q1-086: log P (HCOOH): 4.57

# Same assay, conditions: HPLC, reversed-phase C18, mobile phase with formic acid; read-out: log P (HCOOH)
row,Structure (SMILES),chromatographic logP
1,"Cc1cc(-n2nc(C(F)(F)F)c(-c3cc(Cl)cc(Cl)c3)c2N)ccc1C(=O)O [I-A-Q4-010, 4-[5-Amino-4-(3,5-dichlorophenyl)-3-trifluoromethylpyrazol-1-yl]-2-methylbenzoic acid]",4.04
